The source of these data is patent US9006191B2, “Silencing of polo-like kinase expression using interfering RNA” (Protiva Biotherapeutics, Inc., priority 2007, dated 2015).

Values joined by “and” are separate entries in the source; they are usually repeats but may differ in a detail not shown here. Equal values may be shown once. Read-outs that look alike come from different tables or passages of the source. Strand notation (5' to 3'): a small letter for the sugar, then the base; units joined by * are phosphorothioate-linked, units joined directly phosphodiester-linked; [ ] holds rarer units or linkages, { } end groups; capitals alone tell only the bases. d = 2'-deoxy (DNA); r = 2'-OH (RNA)

Data set [1] deals with IFIT1 mRNA, serum IFNα. The conditions noted are these: mouse, in vivo, iv.
Procedure: (§1) Balb/c mice (n=4 per group) were administered 2.5 mg/kg siRNA or lipid vehicle; serum IFNα (pg/mL) and IFIT1 mRNA (relative to GAPDH) from whole liver lysates were assessed after 4, 8, and 16 h by ELISA and bDNA assay, respectively. […] (b) Serum IFNα and (c) liver IFIT1 mRNA were assessed 4 h after administration (mean+SD, n=4).
(§2) SNALP-formulated Luc (unmodified) and the 2′OMe-modified Luc-U/U, PLK1424-2/A, PLK773-1/B, or KSP2263-U/U siRNA were administered at 2 mg/kg i.v. to Balb/C mice. (A) IFIT1 relative to GAPDH mRNA in liver and spleen was assessed at 4 h by bDNA analysis. […] Serum IFNα was assessed at 6 h by ELISA. […] Values represent mean+SD (n=4).
(§3) IFIT1 mRNA and serum cytokines were assessed 4-6 h after SNALP administration based on the approximate time of peak response for these markers. In these studies, SNALP-formulated native Luc siRNA (Table 6) was used as a positive control for immune stimulation.
(§4) In vivo immune stimulation assays. […] 6-8 week old Balb/C mice were obtained from Harlan and subject to a two week acclimation period prior to use. Mice were administered SNALP formulated siRNA (2 mg/kg) in PBS via standard intravenous injection in the lateral tail vein. Blood was collected by cardiac puncture and processed as plasma for cytokine analysis. Liver and spleen were collected into RNALater (Sigma Co.) for IFIT1 mRNA analysis.
(§5) Measurement of IFIT1 mRNA in mouse tissues. Murine liver and spleen were processed for bDNA assay to quantitate IFIT1 mRNA as described above. The IFIT1 probe set was specific to mouse IFIT1 mRNA (positions 4-499 of NM—008331) and the GAPDH probe set was specific to mouse GAPDH mRNA (positions 9-319 of NM—008084). Data is shown as the ratio of IFIT1 relative light units (RLU) to GAPDH RLU.
(§6) Cytokine ELISA. All cytokines were quantified using sandwich ELISA kits. These were mouse interferon-α (PBL Biomedical; Piscataway, N.J.) and human and mouse IL-6 (BD Biosciences; San Diego, Calif.).
Data set [2] has as its system IFIT1 mRNA, serum IFNα. Briefly: In vivo immune stimulation assay in Balb/c mice (IFIT1 mRNA, serum IFNα).
Procedure: as §1, §2, §3, §4, §5, §6
Data set [3] can be described thus: SNALP particle size and polydispersity. It is filed as physicochemical.
The test system of data set [4] is Hep3B liver tumors. Briefly: Intrahepatic Hep3B tumor model (survival, body weight, tumor burden). It counts as in vivo. To be noted: Hep3B-nu/nu mouse model, 2 mg/kg twice weekly d11-d28. On the procedure:
SNALP containing PLK-1 siRNA (“1:57” SNALP formulation: 1.4% PEG-cDMA; 57.1% DLinDMA; 7.1% DPPC; and 34.3% cholesterol) were tested for their effects on the survival of […] mice bearing Hep3B liver tumors.
Intrahepatic tumor models. Liver tumors were established in mice by direct intrahepatic injection of Hep3B or Neuro2a tumor cells (45). Female scid/beige mice (Charles River Laboratories) and male A/J mice (Jackson Laboratories) were used as hosts for the Hep3B and Neuro2a tumors, respectively. Animals received Anafen by SC injection immediately prior to surgery. Individual mice were anaesthetized by isoflourane gas inhalation and eye lube applied to prevent excessive eye drying. While maintained under gas anaesthesia, a single 1.5 cm incision across the midline was made below the sternum and the left lateral hepatic lobe exteriorized. 1×10^6 Hep3B cells or 1×10^5 Neuro2a cells suspended in 25 μL PBS were injected slowly into the lobe at a shallow angle using a Hamilton syringe and 30G needle. A swab was then applied to the puncture wound to stop any bleeding prior to suturing. Mice were allowed to recover from anaesthesia in a sterile cage and monitored closely for 2-4 h before being returned to conventional housing.
Eight to 11 days after tumor implantation, mice were randomized into treatment groups. siRNA SNALP formulations or PBS vehicle control were administered by standard intravenous injection via the lateral tail vein, calculated on a mg siRNA/kg basis according to individual animal weights (10 mL/kg injection volume). Body weights were then monitored throughout the duration of the study as an indicator of developing tumor burden and treatment tolerability. For efficacy studies, defined humane endpoints were determined as a surrogate for survival. Assessments were made by qualified veterinary technicians based on a combination of clinical signs, weight loss, and abdominal distension to define the day of euthanization due to tumor burden.
Measurement of human PLK-1 and GAPDH mRNA in tumor tissues. Tumors were harvested directly into RNALater and stored at 4° C. until processing. 100 mg tumor tissue was homogenized in Tissue and Lysis Solution (EpiCentre Biotechnologies) containing […] proteinase K (EpiCentre) in a Fastprep tissue homogenizer followed by incubation in a 65° C. waterbath for 15 min and centrifuged to clarify lysates. mRNA analysis in FIG. 33B was performed on purified RNA isolated according the 5′-RACE-PCR protocol. Human PLK-1 and GAPDH mRNA were measured in tumor lystes by the QuantiGene bDNA assay (Panomics) as per the manufacturer's instructions (Quantigene 1.0 Manual). […] Data were expressed as mean PLK-1:GAPDH ratio+/−SD of individual animals. Tumor burden was assessed by homogenizing the complete liver from tumor bearing mice and measuring the total hGAPDH signal (RLU's) within the liver. Values were expressed as hGAPDH RLU/mg total liver.

The test system of data set [5] is IFN-α, IFIT1 mRNA. Description: In vivo immune stimulation assay in CD1 ICR mice (plasma IFN-α, IFIT1 mRNA). The conditions noted are these: 1:57 PEG-cDMA SNALP, 3 mg/kg IV, 4 h. More on the design: species or system mouse. As for the experimental part: In vivo immune stimulation assays. Animal studies were performed to test for the immunostimulatory activity of SNALP containing 2′OMe-modified PLK1424 siRNAs. Six-week-old female CD1 ICR mice were used in this study. […] The tolerability of the treatment regime was monitored by animal appearance and behavior.

Data set [6] has as its system anti-PEG-lipid IgG and IgM antibodies. Description: In vivo PEG-lipid antibody induction assay. The conditions noted are these: CD1 ICR mice, 1:57 SNALP IV at Days 0, 7, 14; plasma Days 7, 14, 21. The arrangement: species or system mouse. As for the experimental part: In vivo PEG-lipid antibody induction assays. Animal studies were performed to test for the induction of an antibody response to 2′OMe-modified PLK1424 siRNAs that were encapsulated in a 1:57 SNALP formulation containing the lipid conjugate PEG-cDMA. Six-week-old female CD1 ICR mice were used in this study. […] Mice were then sacrificed on Day 21. The tolerability of the treatment regime was monitored by animal appearance, behavior, and body weight. Anti-PEG-lipid IgG and IgM antibodies in plasma at Days 7, 14, and 21 were measured by ELISA.

The test system of data set [7] is KSP mRNA. Briefly: KSP mRNA silencing in Neuro2a cells (bDNA assay). It counts as cell-based, mouse. To be noted: 24 h after transfection. From the text: Activity of the 2′OMe-modified panels of (A) PLK1424 and (B) PLK773 siRNA. Unmodified PLK1424 or PLK773 siRNA (black) were compared in the Hep3B cell viability assay to the 2′OMe modified duplexes 1/A, 2/A, 1/B, 2/B, 1/C, or 2/C that comprise the respective 2′OMe sense/antisense oligonucleotides (see, Table 6). Data are mean viability of triplicate cultures relative to PBS treated cells and representative of 2 independent experiments using SNALP-formulated siRNA. (C) Cytokine induction by unmodified and 2′OMe PLK-1 siRNA in vitro. Murine Flt3L DC were treated with 5 μg/mL unmodified PLK773 or PLK1424 siRNA duplexes (773, 1424) and their constituent sense (S) or antisense (AS) oligonucleotides or the 2′OMe siRNA duplexes PLK773-1/B and PLK1424-2/A formulated in SNALP. IFNα and IL-6 were assayed in culture supernates at 24 h. Values are mean+SD of 3 separate experiments conducted in triplicate cultures. (D,E) Activity of SNALP-formulated KSP2263 siRNA in murine Neuro2a cells. (D) Correlation between KSP mRNA silencing and cell viability relative to PBS control. KSP mRNA was determined by bDNA analysis at 24 h. Duplicate plates were assessed for cell viability at 72 h. (E) Activity screen comparing the unmodified KSP2263 siRNA to the panel of 2′OMe-modified duplexes (see, Table 6) in the Neuro2a cell viability assay. Data represents mean+/−SD triplicate cultures, relative to PBS treatment. […]

Data set [8] relates to Neuro2A cells. Briefly: Neuro2A cell viability assay (CellTiter-Blue). It counts as cell-based. The conditions noted are these: mouse Neuro2A cells, SNALP-formulated siRNA, viability at 72 h relative to PBS. As for the experimental part:
Various PLK-1 siRNAs were formulated as SNALP (“2:40” SNALP formulation: 2% PEG-cDMA; 40% DLinDMA; 10% DSPC; and 48% cholesterol) and evaluated for their inhibitory effects on cell growth in vitro. HT29 (human colon adenocarcinoma) or Neuro2A (mouse neuroblastoma) cells were treated with various PLK-1 SNALP at a range of siRNA concentrations and their effect on cell viability was evaluated. Viability of cell cultures is expressed as % viability relative to PBS treated controls.
Additional PLK-1 siRNA molecules were formulated as SNALP (“2:40” SNALP formulation: 2% PEG-cDMA; 40% DLinDMA; 10% DSPC; and 48% cholesterol) and evaluated for their inhibitory effects on cell growth in vitro. HT29 or Neuro2A cells were plated in triplicate at 5000 cells/well and 2500 cells/well, respectively. PLK-1 SNALP dosages were as follows: 25 nM; 5 nM; and 1 nM. Cell viability analysis was performed at 72 hours following transfection. SNALP containing a non-targeting (GFP) siRNA were used as a negative control.
Additional PLK-1 siRNA molecules were formulated as SNALP (“2:40” SNALP formulation: 2% PEG-cDMA; 40% DLinDMA; 10% DSPC; and 48% cholesterol) and evaluated for their inhibitory effects on cell growth in vitro. HT29 or Neuro2A cells were plated in triplicate at 5000 cells/well and 2500 cells/well, respectively. PLK-1 SNALP dosages were as follows: 30 nM; 10 nM; and 3.3 nM. Cell viability analysis was performed at 72 hours following transfection. SNALP containing a non-targeting (GFP) siRNA were used as a negative control.
(Resazurin is reduced to fluorescent resorufin, in cell work by metabolically active cells.)

The test system of data set [9] is HeLa cells. Briefly: Monoastral spindle formation in HeLa cells. It is filed as cell-based, human. To be noted: 20 nM, 16 h. As for the experimental part: HeLa cells were treated for 16 h with (A) Luc or (B) KSP2263 siRNA at 20 nM then immunostained for α-tubulin (FITC). DNA was stained with DAPI and flourescent images captured and overlayed.
The subject of data set [10] is hepatocellular carcinoma. The conditions noted are these: patients with advanced disease, phase III; cited from earlier work.

In the case of “Luc: unmodified siRNA targeting luciferase, SEQ ID NO:231/232 (chain 1 GAUUAUGUCCGGUUAUGUAUU; chain 2 UACAUAACCGGACAUAAUCUU; unmodified RNA)”, the “serum IFNα / serum cytokine response” value in [1] is “detection of systemic IFNα”. In addition, in [2] (2 mg/kg IV, 4 h), the “increase in IFIT1 mRNA in the liver compared to PBS” value was determined as 83 fold and the “increase in IFIT1 mRNA in the spleen compared to PBS” value was 247 fold. Further, the “mean SNALP particle size” value in data set [3] is 90 nm and 82 nm and 72 nm. Moreover, in data set [4], the “median survival, Study (A)” value is 67 days and the “median survival, study (B)” value is listed as “undefined”.

Turning to “PLK1424 2/3: 2′OMe-modified PLK1424 siRNA, SEQ ID NO:400/215 (chain 1 AGANCACCCNCCUNAAANANU; chain 2 UAUUUAANGAGGGUGANCUUU; 2'-OMe modifications, chemistry not fully specified)”, the “IFIT1 induction (QG analysis)” value in data set [5] is given as “no significant IFIT1 induction above that of empty SNALP”. The “IgG / IgM antibody response against PEG-lipid (PEG-cDMA)” value (“IgG / IgM antibody response” below) in data set [6] is given as “almost no detectable antibody responses against the PEG-lipid”.

For the compound “U(S)-ApoB1: ApoB-1 siRNA with 2′OMe-modified sense strand, SEQ ID NO:284/285 (sense GNCANCACACNGAANACCAAN; antisense AUUGGUAUUCAGUGUGAUGACAC; 2'-OMe on sense strand, chemistry not fully specified)”, in data set [2] (SNALP-formulated siRNA IV, 4-6 h), the “serum IFNα / serum cytokine response” value was “no measurable serum cytokine response”. In addition, the “IFIT1 mRNA induction in liver and spleen” value in data set [2] (SNALP-formulated siRNA IV, 4 h) is “induction of IFN-inducible p56 IFIT1 mRNA in the liver and spleen”.

“KSP2263: published siRNA targeting KSP, SEQ ID NO:225/226 (chain 1 rCrUrGrArArGrArCrCrUrGrArArGrArCrArArUdTdT; chain 2 rArUrUrGrUrCrUrUrCrArGrGrUrCrUrUrCrArGdTdT)”: the “KSP mRNA” value in data set [7] is “dose-dependent reductions in KSP mRNA”. Also, in data set [8], the “cell viability / inhibition of cell growth” value is “loss of cell viability at 72 h”. The monoastral spindle phenotype result in data set [9] is given as “monoastral spindles”. Moreover, in data set [3], the “mean SNALP particle size” value was determined as 88 nm and the polydispersity is on record as 0.07.

With “PLK1424 2/4: 2′OMe-modified PLK1424 siRNA, SEQ ID NO:400/401 (chain 1 AGANCACCCNCCUNAAANANU; chain 2 UAUUUAANGAGGGUGANCUUC; 2'-OMe modifications, chemistry not fully specified)”, the “IFIT1 induction (QG analysis)” value in [5] is on record as “no significant IFIT1 induction above that of empty SNALP”. For the same compound, the “IgG / IgM antibody response” value in data set [6] is reported as “almost no detectable antibody responses against the PEG-lipid”.

Turning to “PLK1424 2/6: 2′OMe-modified PLK1424 siRNA, SEQ ID NO:400/403 (chain 1 AGANCACCCNCCUNAAANANU; chain 2 UAUUUAANGAGGGUNANCUNC; 2'-OMe modifications, chemistry not fully specified)”, the “IFIT1 induction (QG analysis)” value in [5] was “no significant IFIT1 induction above that of empty SNALP”. The “IgG / IgM antibody response” value in [6] is “almost no detectable antibody responses against the PEG-lipid”.

Consider `CNC(=O)c1cc(Oc2ccc(NC(=O)Nc3ccc(Cl)c(C(F)(F)F)c3)cc2)ccn1` [Sorafenib], for which the survival time in [10] is listed as 10.7 mo.
